Source: US12338238B2, “Inhibitors of SARM1” (Disarm Therapeutics, Inc., priority 2018, dated 2025)

What was measured:
[1] = molecular target: SARM1 SAM-TIR (Homo sapiens (Human), UniProt Q6SZW1); assay: biochemical; format: biochemical; settings: SAM-TIR lysate 5 μg/mL, 2 hr pre-incubation, 5 μM NAD+, RapidFire MS
[2] = system: mouse dorsal root ganglion (DRG) axons; assay: Axon degeneration assay in mouse DRG drop culture; format: cell-based; settings: protection of axon fragmentation, axonal transection or chemotoxic stimuli
Procedure: This Example illustrates an in vitro axon degeneration assay used to characterize compounds of Formula I. This assay is used to test the efficacy of the compounds of Formula I to prevent axonal degeneration in a mouse dorsal root ganglion (DRG) drop culture.
Mouse dorsal root ganglion neurons (DRGs) were dissected out of E12.5 CD1 mice (50 ganglion per embryo) and incubated with 0.5% Trypsin solution containing 0.02% EDTA (Gibco) at 37° C. for 15 min. The cells were then triturated by gentle pipetting and washed 3 times with DRG growth medium (Neurobasal medium (Gibco) containing 2% B27 (Invitrogen), 100 ng/ml 2.5S NGF (Harland Bioproducts), […] 5-fluoro-2′deoxyuridine (Sigma), penicillin, and streptomycin). Cells were suspended in the DRG growth medium. DRG drop cultures were created by spotting 5000 cells/well into the center of each well of a 96-well tissue culture plate coated with poly-D-Lysine (0.1 mg/ml; Sigma) and laminin ([…]; Invitrogen). Cells were allowed to adhere to the plates in a humidified tissue culture incubator (5% CO2) for 15 min and then DRG growth medium was gently added ([…]).
Axonal degeneration was stimulated either by manual axonal transection using a scalpel blade, or chemotoxic stimuli. After an appropriate experimental time period, the DRG cultures were fixed in 1% PFA plus sucrose and kept in the fridge prior to imaging. Bright-field images of DRG axons and cell bodies were collected using the 20x water immersion lens of a Phenix automated confocal microscope (PerkinElmer) and quantitation of axonal performed using in-house developed scripts (Acapella, PerkinElmer).

Sequence of SARM1 SAM-TIR (Q6SZW1 409-724): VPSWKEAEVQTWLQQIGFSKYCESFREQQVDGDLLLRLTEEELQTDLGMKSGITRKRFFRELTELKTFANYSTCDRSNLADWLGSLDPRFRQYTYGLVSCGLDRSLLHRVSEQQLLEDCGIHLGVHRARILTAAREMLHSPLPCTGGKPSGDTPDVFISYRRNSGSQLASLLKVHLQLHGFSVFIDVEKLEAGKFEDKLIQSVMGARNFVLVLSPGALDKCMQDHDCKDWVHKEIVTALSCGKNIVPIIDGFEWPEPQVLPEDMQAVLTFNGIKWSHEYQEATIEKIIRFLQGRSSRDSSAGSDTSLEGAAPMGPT

SMILES	IC50 [1] [µM]	IC50 [2] [µM]
Brc1cncc2ccccc12 [Example 2]	15 to 30	–
O=c1[nH]cc(I)c2ccncc12 [Example 3]	< 5	–
O=c1[nH]cc(Br)c2ccncc12 [Example 4]	< 5	–
O=c1[nH]ccc2ccncc12 [Example 5]	< 5	–
O=c1[nH]ncc2ccc(F)cc12 [Example 7]	> 30	–
Brc1cccc2cnccc12 [Example 8]	< 5	< 10
Nc1ccc2cnccc2c1Cl [Example 9]	15 to 30	–
Brc1cccc2cnncc12 [Example 10]	< 5	–
Oc1cccc2ccncc12 [Example 11]	< 5	–
Nc1ccc(Br)c2ccncc12 [Example 12]	< 5	–
Cc1cncc2cccc(Br)c12 [Example 13]	5 to 15	–
Oc1cc2c(Br)cccc2cn1 [Example 14]	> 30	–
COc1ccc(Br)c2ccncc12 [Example 15]	< 5	–
Brc1ccc2cnncc2c1 [Example 16]	> 30	–
Cc1cncc2ccccc12 [Example 17]	5 to 15	–
Nc1nccc2c(I)cccc12 [Example 18]	< 5	–
c1cc(C2CC2)c2ccncc2c1 [Example 19]	5 to 15	–
CCn1cc(Br)c2ccncc2c1=O [Example 20]	5 to 15	–
COc1ncc(Br)c2ccncc12 [Example 21]	5 to 15	–
CC(C)c1c[nH]c(=O)c2cnccc12 [Example 22]	5 to 15	–
CN(C)c1nccc2c(Br)cccc12 [Example 23]	> 30	–

SMILES	IC50 [1] [µM]	IC50 [2] [µM]
COc1ncc(C2CC2)c2ccncc12 [Example 24]	> 30	–
CC(C)Oc1cccc2cnccc12 [Example 25]	> 30	–
Ic1cccc2cnccc12 [Example 26]	–	< 10
CNc1nccc2c(Br)cccc12 [Example 27]	> 30	–
COc1c[nH]c(=O)c2cnccc12 [Example 28]	> 30	–
O=c1cc(Br)c2ccncc2[nH]1 [Example 29]	< 5	–
Fc1cc(Cl)c2ccncc2c1 [Example 30]	< 5	–
Nc1ccc(Cl)c2ccncc12 [Example 32]	< 5	–
O=c1[nH]ccc2c(Br)cccc12 [Example 33]	5 to 15	–
Clc1ccc(Br)c2cnccc12 [Example 34]	15 to 30	–
Nc1cccc2cncc(Br)c12 [Example 35]	15 to 30	–
c1cc2ccncc2cn1 [Example 36]	15 to 30	–
Nc1cccc2cnncc12 [Example 37]	15 to 30	–
Nc1nccc2ccncc12 [Example 38]	> 30	–
O=c1[nH]ccc2ccc(O)cc12 [Example 39]	> 30	–
COc1cc2cc[nH]c(=O)c2cc1F [Example 40]	> 30	–
Clc1ccnc2cnccc12 [Example 41]	< 5	–
Clc1cccc2cnccc12 [Example 42]	< 5	10 to 30
c1ccc2nnccc2c1 [Example 43]	< 5	–
Oc1cccc2cnccc12 [Example 44]	< 5	–
OCc1cccc2cnccc12 [Example 45]	< 5	–

SMILES	IC50 [1] [µM]	IC50 [2] [µM]
Nc1ncc(Br)c2ccncc12 [Example 46]	< 5	–
O=[N+]([O-])c1cccc2cnccc12 [Example 47]	5 to 15	–
c1ccc2cnccc2c1 [Example 48]	5 to 15	–
COc1cccc2cnccc12 [Example 49]	5 to 15	–
NCc1cccc2cnccc12 [Example 50]	15 to 30	–
COC(=O)c1cccc2cnccc12 [Example 51]	> 30	–
Nc1cccc2c(Br)cncc12 [Example 52]	> 30	–
Cc1nccc2c(Br)cccc12 [Example 53]	> 30	–
O=C(O)c1ccnc2cnccc12 [Example 54]	15 to 30	–
Nc1nccc2c(Br)cccc12 [Example 55]	< 5	–
COc1cccc2ccncc12 [Example 56]	< 5	–
Clc1ccc(Cl)c2cnccc12 [Example 57]	5 to 15	–
Cc1cc2c(N)cccc2cn1 [Example 58]	5 to 15	–
Oc1cncc2ccccc12 [Example 59]	15 to 30	–
Brc1cccc2cncnc12 [Example 60]	> 30	–
FC(F)(F)c1cccc2cnccc12 [Example 61]	> 30	–
Nc1ccc(O)c2cnccc12 [Example 62]	< 5	–
Nc1cncc2ccccc12 [Example 63]	5 to 15	–
Ic1cccc2cnncc12 [Example 64]	< 5	–
Oc1ccc(Br)c2ccncc12 [Example 65]	< 5	–
Cn1cc(Br)c2ccncc2c1=O [Example 66]	< 5	–

SMILES	IC50 [1] [µM]	IC50 [2] [µM]
Brc1ccnc2cnccc12 [Example 67]	< 5	–
CNc1ncc(Br)c2ccncc12 [Example 68]	< 5	–
COc1cc(Br)c2ccncc2n1 [Example 69]	< 5	–
Brc1cncc2cnccc12 [Example 70]	< 5	–
Nc1ccnc2cnccc12 [Example 71]	5 to 15	–
CNC(=O)Nc1ncc(Br)c2ccncc12 [Example 72]	5 to 15	–
COc1cccc2cnncc12 [Example 73]	5 to 15	–
CSc1cccc2cnccc12 [Example 74]	5 to 15	–
Nc1c[nH]c(=O)c2cnccc12 [Example 75]	15 to 30	–
Cc1nccc2c(Br)c[nH]c(=O)c12 [Example 76]	15 to 30	–
O=S(=O)(Nc1nccc2c(Br)cccc12)C1CC1 [Example 77]	15 to 30	–
O=c1[nH]cnc2ccncc12 [Example 78]	15 to 30	–
CC(=O)c1cccc2cnccc12 [Example 79]	15 to 30	–
O=c1[nH]cc([N+](=O)[O-])c2ccncc12 [Example 80]	> 30	–
Clc1ncc(Br)c2ccncc12 [Example 81]	> 30	–
CC(C)(O)c1cccc2cnccc12 [Example 82]	> 30	–
O=c1[nH]cc(Br)c2cc[n+]([O-])cc12 [Example 83]	> 30	–
Nc1nccc2c(C3CC3)cccc12 [Example 84]	> 30	–
C#Cc1cccc2cnccc12 [Example 85]	< 5	–
